Assay results from PubChem BioAssay (NCI).
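48-hour exposure; five concentrations; linearly interpolated endpoints. The concentration for 50% growth inhibition is given as GI50. TGI: concentration producing complete growth inhibition.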

Legend:
Assay in all cases: NCI tumour cell line growth inhibition, 48 h
[1] = system: 786-0 renal
[2] = system: BT-549 breast
[3] = system: DU-145 prostate
[4] = system: KM12 colon
[5] = system: OVCAR-3 ovarian
[6] = system: SK-MEL-5 melanoma
[7] = system: SK-OV-3 ovarian
[8] = system: SR leukemia
[9] = system: TK-10 renal
[10] = system: UO-31 renal

CC(=O)/C(Br)=C/c1ccc(Br)o1
GI50 [1]: 16.5 µM | TGI [1]: 34.2 µM | GI50 [2]: 5.94 µM | TGI [2]: 18.6 µM | GI50 [3]: 6.19 µM | TGI [3]: 18.3 µM | GI50 [4]: 12 µM | TGI [4]: 25.9 µM | GI50 [5]: 4.16 µM | TGI [5]: 14.5 µM | GI50 [6]: 10.3 µM | TGI [6]: 22.6 µM | GI50 [7]: 26.8 µM | TGI [7]: > 65.8 µM | GI50 [8]: 1.72 µM | TGI [8]: 5.42 µM | GI50 [9]: 5.42 µM | TGI [9]: 17.9 µM | GI50 [10]: 10.2 µM | TGI [10]: 29.1 µM

O=C(NCCOCCOCCOCCNC(=O)c1cc2c(o1)C(=O)c1ccccc1C2=O)NC12CC3CC(CC(C3)C1)C2
GI50 [1]: 2.89 µM | TGI [1]: 11 µM | GI50 [2]: 1.5 µM | TGI [2]: 3.25 µM | GI50 [3]: 0.628 µM | TGI [3]: 1.89 µM | GI50 [4]: 3.34 µM | TGI [4]: 13 µM | GI50 [5]: 1.41 µM | TGI [5]: 4.4 µM | GI50 [6]: 0.303 µM | TGI [6]: 1.02 µM | GI50 [7]: 2.84 µM | TGI [7]: 7.43 µM | GI50 [8]: 2.37 µM | TGI [8]: 11.7 µM | GI50 [9]: 3.68 µM | TGI [9]: 7.24 µM | GI50 [10]: 1.69 µM | TGI [10]: 3.77 µM

CNC(=O)c1c(F)cccc1Nc1nc(Nc2cc3c(cc2OC)CCN3C(=O)CN(C)C)nc2[nH]ccc12
GI50 [1]: 11.3 µM | TGI [1]: 33.2 µM | GI50 [2]: 19.8 µM | TGI [2]: 48.2 µM | GI50 [3]: 7.37 µM | TGI [3]: 24.9 µM | GI50 [4]: 2.23 µM | TGI [4]: 4.99 µM | GI50 [5]: 15 µM | TGI [5]: 30.8 µM | GI50 [6]: 5.67 µM | TGI [6]: 23.1 µM | GI50 [7]: 11.5 µM | TGI [7]: 27.5 µM | GI50 [8]: 0.0203 µM | TGI [8]: > 100 µM | GI50 [9]: 4.76 µM | TGI [9]: 11.8 µM | GI50 [10]: 3.85 µM | TGI [10]: 12.2 µM

Nc1ncc(-c2ccc3ncnc(N4CCc5ccc(Cl)cc54)c3c2)cc1C(F)(F)F
GI50 [1]: 1.6 µM | TGI [1]: 12 µM | GI50 [2]: 1.82 µM | TGI [2]: 17.2 µM | GI50 [3]: 1.43 µM | TGI [3]: 18.2 µM | GI50 [4]: 2.48 µM | TGI [4]: 48.3 µM | GI50 [5]: 1.05 µM | TGI [5]: 15.1 µM | GI50 [6]: 5.08 µM | TGI [6]: 28.8 µM | GI50 [7]: 1.3 µM | TGI [7]: 7.04 µM | GI50 [8]: 2.55 µM | TGI [8]: > 100 µM | GI50 [9]: 1.36 µM | TGI [9]: 11 µM | GI50 [10]: 0.254 µM | TGI [10]: 4.62 µM

Cc1ccc(-c2nc(-c3nccc4ccccc34)oc2-c2ccccc2)cc1
TGI [1]: > 100 µM | TGI [2]: > 100 µM | TGI [3]: > 100 µM | TGI [4]: > 100 µM | TGI [5]: > 100 µM | TGI [6]: > 100 µM | TGI [7]: > 100 µM | TGI [8]: > 100 µM | TGI [9]: > 100 µM | TGI [10]: > 100 µM

NC(Cc1c[nH]c2ccc([N+](=O)[O-])cc12)C(=O)O (stereo not drawn)
TGI [1]: > 100 µM | TGI [2]: > 100 µM | TGI [3]: > 100 µM | TGI [4]: > 100 µM | TGI [5]: > 100 µM | TGI [6]: > 100 µM | TGI [7]: > 100 µM | TGI [8]: > 100 µM | TGI [9]: > 100 µM | TGI [10]: > 100 µM

C#C[C@@]1(O)[C@@H](CO)O[C@@H](n2cc(C(F)(F)F)c3c(N)ncnc32)[C@@H]1O
GI50 [1]: 2.07 µM | TGI [1]: > 100 µM | GI50 [2]: 0.962 µM | TGI [2]: 4.69 µM | GI50 [3]: 0.433 µM | TGI [3]: > 100 µM | GI50 [4]: 0.365 µM | TGI [4]: > 30.4 µM | GI50 [5]: 0.727 µM | TGI [5]: 4.89 µM | GI50 [6]: 0.688 µM | TGI [6]: 4.38 µM | GI50 [7]: 0.214 µM | TGI [7]: > 100 µM | GI50 [8]: 0.306 µM | TGI [8]: 1.7 µM | GI50 [9]: 0.966 µM | TGI [9]: > 28.2 µM | GI50 [10]: 0.311 µM | TGI [10]: 3.16 µM

CCCc1nc(Cl)c(Cl)c(Cl)n1
TGI [1]: > 31.6 µM | TGI [2]: 77.9 µM | TGI [3]: > 100 µM | TGI [4]: > 100 µM | TGI [5]: 18.7 µM | TGI [6]: > 100 µM | TGI [7]: > 100 µM | TGI [8]: > 50.7 µM | TGI [9]: > 100 µM | TGI [10]: 5.61 µM

O=C(Nc1cc(Cl)ccc1O)c1cccc(Nc2ccnc(C(F)(F)F)c2)c1
GI50 [1]: 3.56 µM | TGI [1]: 19.3 µM | GI50 [2]: 2.18 µM | TGI [2]: 12.6 µM | GI50 [3]: 5.22 µM | TGI [3]: 22.6 µM | GI50 [4]: 3.68 µM | TGI [4]: 14.4 µM | GI50 [5]: 2.73 µM | TGI [5]: 10.4 µM | GI50 [6]: 1.3 µM | TGI [6]: 3.83 µM | GI50 [7]: 3.3 µM | TGI [7]: 25.3 µM | GI50 [8]: 0.811 µM | TGI [8]: 15.2 µM | GI50 [9]: 4.51 µM | TGI [9]: 19.8 µM | GI50 [10]: 2.3 µM | TGI [10]: 11.3 µM

O=C(Nc1ccccc1)OC1OC(COC(=O)c2ccccc2)C(OC(=O)c2ccccc2)C1OS(=O)(=O)c1ccc([N+](=O)[O-])cc1 (stereo not drawn)
TGI [1]: > 100 µM | TGI [2]: > 100 µM | TGI [3]: > 100 µM | TGI [4]: > 100 µM | TGI [5]: > 100 µM | TGI [6]: > 100 µM | TGI [7]: > 100 µM | TGI [8]: > 100 µM | TGI [9]: > 100 µM | TGI [10]: > 100 µM

Fc1ccc(-c2nn3ccccc3c2-c2ccncc2)cc1
GI50 [1]: > 25 µM | TGI [1]: > 25 µM | GI50 [2]: > 25 µM | TGI [2]: > 25 µM | GI50 [3]: > 25 µM | TGI [3]: > 25 µM | GI50 [4]: > 25 µM | TGI [4]: > 25 µM | GI50 [5]: > 25 µM | TGI [5]: > 25 µM | GI50 [6]: > 22.8 µM | TGI [6]: > 25 µM | GI50 [7]: > 25 µM | TGI [7]: > 25 µM | GI50 [8]: > 25 µM | TGI [8]: > 25 µM | GI50 [9]: 12 µM | TGI [9]: > 25 µM | GI50 [10]: 8.26 µM | TGI [10]: > 25 µM

CCOc1ccc(C(C[N+](=O)[O-])Sc2ccccc2N)cc1 (stereo not drawn)
GI50 [1]: 5.11 µM | TGI [1]: 17.1 µM | GI50 [2]: 2.6 µM | TGI [2]: 9.9 µM | GI50 [3]: 4.17 µM | TGI [3]: 15 µM | GI50 [4]: 3.27 µM | TGI [4]: 10.2 µM | GI50 [5]: 2.92 µM | TGI [5]: 12 µM | GI50 [6]: 6.34 µM | TGI [6]: 19.4 µM | GI50 [7]: 14.2 µM | TGI [7]: 27.2 µM | GI50 [8]: 2.3 µM | TGI [8]: 5.17 µM | GI50 [9]: 15.4 µM | TGI [9]: 29.2 µM | GI50 [10]: 2.05 µM | TGI [10]: 18.2 µM

COc1ccc2c(c1)CCc1cc(OC)ccc1/[N+]([O-])=[N+]\2[O-]
TGI [1]: 18.6 µM | TGI [2]: 29.8 µM | TGI [3]: 38.1 µM | TGI [4]: 46 µM | TGI [5]: 33.9 µM | TGI [6]: 31.6 µM | TGI [7]: 35.6 µM | TGI [8]: > 42.7 µM | TGI [9]: 45 µM | TGI [10]: 25.9 µM

Oc1[nH]c2ccccc2c1/C=c1/ccc2c(c1)N=C(c1ccc(C(F)(F)F)cc1)N=2
GI50 [1]: 1.48 µM | TGI [1]: 3.56 µM | GI50 [2]: 2.04 µM | TGI [2]: 9.25 µM | GI50 [3]: 4.11 µM | TGI [3]: 16 µM | GI50 [4]: 1.09 µM | TGI [4]: 12.7 µM | GI50 [5]: 0.74 µM | TGI [5]: 3.89 µM | GI50 [6]: 8.72 µM | TGI [6]: 20.9 µM | GI50 [7]: 12.1 µM | TGI [7]: 25 µM | GI50 [8]: 1.7 µM | TGI [8]: 4.54 µM | GI50 [9]: 10.4 µM | TGI [9]: 22.2 µM | GI50 [10]: 2.48 µM | TGI [10]: 13 µM

COc1ccc(C(=O)c2cc3c(N)c(C(=O)Nc4cccc(Br)c4C)sc3nc2C)cc1
GI50 [1]: 0.0616 µM | TGI [1]: > 100 µM | GI50 [2]: 0.123 µM | TGI [2]: > 100 µM | GI50 [3]: 0.194 µM | GI50 [4]: 0.0684 µM | TGI [4]: > 36.3 µM | GI50 [5]: 0.0394 µM | TGI [5]: 1.05 µM | GI50 [6]: 0.193 µM | TGI [6]: 1.81 µM | GI50 [7]: 0.102 µM | TGI [7]: > 100 µM | GI50 [8]: 0.0354 µM | GI50 [9]: 36.4 µM | TGI [9]: > 100 µM | GI50 [10]: 0.219 µM | TGI [10]: > 100 µM
